Data on 4 molecules can be found in PMC4798942 (ACS chemical biology, 2015).

Format in all cases: biochemical
For assay [1], the target named is T1, human CP4H1 (collagen prolyl 4-hydroxylase 1, alpha(I)2beta2 holoenzyme) (Homo sapiens, UniProt P13674). The assay can be described thus: inhibition of CP4H1 activity in vitro. The conditions noted are these: 100 µM compound.
In assay [2] the target is T1, human CP4H1 (collagen prolyl 4-hydroxylase 1, alpha(I)2beta2 holoenzyme). The assay can be described thus: dose-response inhibition of CP4H1 hydroxylation activity.
Assay [3] has as its target human PHD2 (Homo sapiens, UniProt Q9GZT9). The assay can be described thus: inhibition of PHD2 activity in vitro.
Assay [4] deals with T1, human CP4H1 (collagen prolyl 4-hydroxylase 1, alpha(I)2beta2 holoenzyme). As to the kind of experiment: Lineweaver-Burk analysis of CP4H1 activity.
The mark [5] stands for this setting: Fe(II) and AKG dependent reaction.

Read-outs that look alike come from different tables or passages of the source.

T1 sequence (P13674 18-534): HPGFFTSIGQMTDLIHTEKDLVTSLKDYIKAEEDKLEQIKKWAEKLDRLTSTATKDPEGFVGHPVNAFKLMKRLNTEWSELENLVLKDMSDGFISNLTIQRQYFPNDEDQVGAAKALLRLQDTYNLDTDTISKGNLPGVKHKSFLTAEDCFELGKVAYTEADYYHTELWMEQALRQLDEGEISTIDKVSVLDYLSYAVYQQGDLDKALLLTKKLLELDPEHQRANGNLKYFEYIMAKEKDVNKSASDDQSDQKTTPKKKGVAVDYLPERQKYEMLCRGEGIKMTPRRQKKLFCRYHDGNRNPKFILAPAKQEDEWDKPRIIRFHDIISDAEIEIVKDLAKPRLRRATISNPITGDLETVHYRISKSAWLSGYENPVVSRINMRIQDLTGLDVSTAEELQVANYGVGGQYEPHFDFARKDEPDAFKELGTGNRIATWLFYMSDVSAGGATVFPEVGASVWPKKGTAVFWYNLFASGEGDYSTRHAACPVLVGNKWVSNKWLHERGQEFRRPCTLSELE
T1 sequence (P07237 18-508 partner): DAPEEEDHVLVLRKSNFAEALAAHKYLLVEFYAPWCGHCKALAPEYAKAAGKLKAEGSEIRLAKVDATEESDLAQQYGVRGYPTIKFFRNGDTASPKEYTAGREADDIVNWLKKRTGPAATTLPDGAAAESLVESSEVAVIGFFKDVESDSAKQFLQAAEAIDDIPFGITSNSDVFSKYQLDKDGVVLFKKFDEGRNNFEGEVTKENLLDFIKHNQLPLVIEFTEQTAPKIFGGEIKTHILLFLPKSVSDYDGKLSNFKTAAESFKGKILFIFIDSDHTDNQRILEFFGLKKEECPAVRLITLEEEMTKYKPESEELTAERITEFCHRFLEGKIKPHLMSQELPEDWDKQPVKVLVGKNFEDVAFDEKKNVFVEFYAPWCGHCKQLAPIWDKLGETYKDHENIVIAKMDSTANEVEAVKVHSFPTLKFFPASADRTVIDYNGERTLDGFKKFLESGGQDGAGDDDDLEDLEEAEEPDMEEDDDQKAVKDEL
Sequence of human PHD2 (Q9GZT9 2-426): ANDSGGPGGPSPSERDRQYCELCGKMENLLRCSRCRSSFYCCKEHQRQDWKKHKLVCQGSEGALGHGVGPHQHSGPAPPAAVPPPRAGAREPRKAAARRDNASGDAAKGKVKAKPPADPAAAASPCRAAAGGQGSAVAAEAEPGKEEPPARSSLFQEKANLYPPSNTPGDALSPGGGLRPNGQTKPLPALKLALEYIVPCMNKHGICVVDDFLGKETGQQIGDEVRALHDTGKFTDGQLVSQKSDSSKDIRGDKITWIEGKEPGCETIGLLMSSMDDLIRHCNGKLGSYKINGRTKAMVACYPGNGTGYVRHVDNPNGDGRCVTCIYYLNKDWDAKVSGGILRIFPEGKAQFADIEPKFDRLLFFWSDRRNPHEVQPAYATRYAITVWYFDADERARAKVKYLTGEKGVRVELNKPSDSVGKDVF

On to `CCOC(=O)c1ccc(-c2ncc(C(=O)OCC)s2)nc1` [diethyl pythiDC], for which the “inhibition at 100 μM” value in assay [1] is on record as “No inhibition of catalysis by CP4H1 or PHD2 was observed in vitro with these diethyl esters”.

As for `O=C(O)c1ccc(-c2ncc(C(=O)O)[nH]2)nc1` [pyimDC], half-maximal inhibition in assay [2] (setting [5]) (IC50) was put at 2.6 ± 0.1 µM.

For `O=C(O)c1ccc(-c2ncc(C(=O)O)o2)nc1` [pyoxDC], in assay [2] (setting [5]), the midpoint of inhibition, the IC50, lay at 33 ± 8 µM. This IC50 lies about 13-fold higher than the previous one.

As to `O=C(O)c1ccc(-c2ncc(C(=O)O)s2)nc1` [pythiDC, 2 (5-carboxythiazol-2-yl)pyridine-5-carboxylic acid], the inhibition entry in assay [3] is “inhibit human PHD2 only weakly (Figure S4), with pythiDC displaying especially low potency”. In addition, half-maximal inhibition in assay [2] (IC50) required 4 ± 0.2 µM. Further, in assay [4], the affinity, expressed as Ki, was 0.39 ± 0.04 µM.
